Measured values: US11524940B1, “Inhibitors of cysteine proteases and methods of use thereof” (priority 2020, dated 2022)

These compounds were tested against 229E Mpro (Human coronavirus 229E (HCoV-229E), UniProt P0C6X1) (assay: 229E Mpro activity). Details: read-out: 229E Mpro EC50.
Assay type: biochemical
Description: Compounds are assayed using standard methods to assess compound activity and IC50. […] The assay buffer contains 20 mM of Tris-HCl (pH 7.3), 100 mM of NaCl, 1 mM of EDTA, 5mM of TCEP and 0.1% BSA.

229E Mpro, sequence (P0C6X1 2966-3267 limits assumed): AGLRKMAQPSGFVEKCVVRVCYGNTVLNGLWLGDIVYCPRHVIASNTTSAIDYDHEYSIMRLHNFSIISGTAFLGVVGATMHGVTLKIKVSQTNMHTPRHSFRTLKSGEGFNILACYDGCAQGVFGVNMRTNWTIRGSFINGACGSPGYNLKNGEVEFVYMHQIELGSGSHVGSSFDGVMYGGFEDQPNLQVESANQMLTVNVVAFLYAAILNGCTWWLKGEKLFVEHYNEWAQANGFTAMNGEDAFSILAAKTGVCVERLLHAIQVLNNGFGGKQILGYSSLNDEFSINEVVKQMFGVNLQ

Structure (SMILES)	EC50 [nM]
N#C[C@H](C[C@@H]1CCCNC1=O)NC(=O)C1CC2(CCC2)CN1C(=O)c1cc2cccc(Cl)c2[nH]1 (single isomer, unassigned) [729 (Isomer 2)]	< 2000
COCCOCCOc1cccc2[nH]c(C(=O)NC(CC(C)(C)C)C(=O)NC(C#N)CC3CCCNC3=O)cc12 (single isomer, unassigned) [875 (Isomer 1)]	< 2000
N#C[C@H](C[C@@H]1CCCNC1=O)NC(=O)[C@H](CC1CC1)NC(=O)c1cc2c(Cl)cc(F)cc2[nH]1 [Compound 824, 4-chloro-N-[(1S)-2-[[(1S)-1-cyano-2-[(3S)-2-oxo-3-piperidyl]ethyl]amino]-1-(cyclopropylmethyl)-2-oxo-ethyl]-6-fluoro-1H-indole-2-carboxamide]	< 2000
N#C[C@H](C[C@@H]1CCNC1=O)NC(=O)C1CC2(CCCCC2)CN1C(=O)c1cc2ccc(Cl)cc2[nH]1 (single isomer, unassigned) [878 (Isomer 2)]	10000 to 30000
COc1cccc2[nH]c(C(=O)N3C[C@H](C(F)(F)F)C[C@H]3C(=O)N[C@H](C#N)C[C@@H]3CCNC3=O)cc12 [Compound 549, (2S,4R)-N-[(1S)-1-cyano-2-[(3S)-2-oxopyrrolidin-3-yl]ethyl]-1-(4-methoxy-1H-indole-2-carbonyl)-4-(trifluoromethyl)pyrrolidine-2-carboxamide]	< 2000
COc1cccc2[nH]c(C(=O)N[C@@H](CC(C)C)C(=O)N[C@H](C#N)Cc3cncn3C)cc12 [Compound 225]	> 30000
N#C[C@H](C[C@@H]1CCCNC1=O)NC(=O)[C@H](CC1CC1)NC(=O)c1ncc(Cl)[nH]1 [Compound 868]	< 2000
COc1ccc(Br)c2[nH]c(C(=O)N[C@@H](CC3CC3)C(=O)N[C@H](C#N)C[C@@H]3CCCNC3=O)cc12 [Compound 846]	< 2000
N#C[C@H](C[C@@H]1CCCNC1=O)NC(=O)[C@H](CC1CC1)NC(=O)c1cc2c(Cl)cc(Cl)cc2[nH]1 [Compound 840, 4,6-dichloro-N-[(1S)-2-[[(1S)-1-cyano-2-[(3S)-2-oxo-3-piperidyl]ethyl]amino]-1-(cyclopropylmethyl)-2-oxo-ethyl]-1H-indole-2-carboxamide]	< 2000
N#C[C@H](C[C@@H]1CCCNC1=O)NC(=O)[C@H](CC1CC1)NC(=O)c1cc2ccc(Cl)c(Cl)c2[nH]1 [Compound 727, 6,7-dichloro-N-[(1S)-2-[[(1S)-1-cyano-2-[(3S)-2-oxo-3-piperidyl]ethyl]amino]-1-(cyclopropylmethyl)-2-oxo-ethyl]-1H-indole-2-carboxamide]	< 2000
N#C[C@H](C[C@@H]1CCNC1=O)NC(=O)[C@@H]1CCCNN1C(=O)/C=C/c1ccc(Cl)cc1F [Compound 213, (3S)-2-[(E)-3-(4-chloro-2-fluoro-phenyl)prop-2-enoyl]-N-[(1S)-1-cyano-2-[(3S)-2-oxopyrrolidin-3-yl]ethyl]hexahydropyridazine-3-carboxamide]	> 30000
COc1cc(Cl)c2[nH]c(C(=O)N[C@@H](CC3CC3)C(=O)N[C@H](C#N)C[C@@H]3CCCNC3=O)cc2c1 [Compound 900, 7-chloro-N-((S)-1-(((S)-1-cyano-2-((S)-2-oxopiperidin-3-yl)ethyl)amino)-3-cyclopropyl-1-oxopropan-2-yl)-5-methoxy-1H-indole-2-carboxamide]	< 2000
COc1cccc2[nH]c(C(=O)N[C@H](C(=O)N[C@H](C#N)C[C@@H]3CCNC3=O)C3CC4CC4C3)cc12 (stereo partly shown) [Compound 499]	< 2000
COc1cccc2[nH]c(C(=O)N3CC4(CCCC4)C[C@H]3C(=O)N[C@H](C#N)C[C@@H]3CCNC3=O)cc12 (single isomer, unassigned) [401 (Isomer 2)]	2000 to 10000
CCNC(C#N)[C@H](C[C@@H]1CCNC1=O)NC(=O)[C@H](CC(C)C)NC(=O)c1cc2c(OC)cccc2[nH]1 (single isomer, unassigned) [511 (Isomer 2)]	< 2000
COc1cccc2[nH]c(C(=O)N3CC(C45CC(C4)C5)C[C@H]3C(=O)N[C@H](C#N)C[C@@H]3CCNC3=O)cc12 (single isomer, unassigned) [385 (Isomer 1)]	< 2000
CC(C)C[C@H](NC(=O)c1nc2ncccc2[nH]1)C(=O)N[C@H](C#N)C[C@@H]1CCNC1=O [Compound 131, N-[(1S)-1-[[(1S)-1-cyano-2-[(3S)-2-oxopyrrolidin-3-yl]ethyl]carbamoyl]-3-methyl-butyl]-1H-imidazo[4,5-b]pyridine-2-carboxamide]	< 2000
N#C[C@H](C[C@@H]1CCNC1=O)NC(=O)[C@H](CC1CC1)N1CCc2cc[nH]c2C1=O [Compound 267, (2S)-N-[(1S)-1-cyano-2-[(3S)-2-oxopyrrolidin-3-yl]ethyl]-3-cyclopropyl-2-(7-oxo-4,5-dihydro-1H-pyrrolo[2,3-c]pyridin-6-yl)propanamide]	< 2000
COc1cccc2[nH]c(C(=O)N[C@@H](CC(C)C)C(=O)N[C@@H](C[C@@H]3CCNC3=O)C(C#N)OC(=O)NC(C)C)cc12 (stereo partly shown) [Compound 583]	> 30000

Structure (SMILES)	EC50 [nM]
Cc1cc(C(=O)N[C@H]2CC[C@@H]3SC[C@@H](C(=O)N[C@H](C#N)C[C@@H]4CCNC4=O)N3C2=O)no1 [Compound 459, N-((3R,6S,8aS)-3-(((S)-1-cyano-2-((S)-2-oxopyrrolidin-3-yl)ethyl)carbamoyl)-5-oxohexahydro-2H-thiazolo[3,2-a]pyridin-6-yl)-5-methylisoxazole-3-carboxamide]	> 30000
CN1CCCC[C@]12CCN([C@@H](CC1CC1)C(=O)N[C@H](C#N)C[C@@H]1CCNC1=O)C2=O [Compound 273C, (2S)-N-[(1S)-1-cyano-2-[(3S)-2-oxopyrrolidin-3-yl]ethyl]-3-cyclopropyl-2-[(5R)-6-methyl-1-oxo-2,6-diazaspiro[4.5]decan-2-yl]propanamide]	2000 to 10000
N#C[C@H](C[C@@H]1CCCNC1=O)NC(=O)[C@H](CC1CC1)NC(=O)c1cc2c(F)ccc(Cl)c2[nH]1 [Compound 832, 7-chloro-N-[(1S)-2-[[(1S)-1-cyano-2-[(3S)-2-oxo-3-piperidyl]ethyl]amino]-1-(cyclopropylmethyl)-2-oxo-ethyl]-4-fluoro-1H-indole-2-carboxamide]	< 2000
COc1cccc2[nH]c(C(=O)N[C@@H](CC3CC3)C(=O)N[C@H](C#N)C[C@H]3C(=O)Nc4ccccc43)cc12 [Compound 932]	< 2000
COc1cccc2[nH]c(C(=O)N[C@@H](CC(C)C)C(=O)NC(C#N)CC3CC(=O)Nc4ccccc43)cc12 (mixture of isomers) [Compound 249, N-[(1S)-1-[[1-cyano-2-(2-oxo-3,4-dihydro-1H-quinolin-4-yl)ethyl]carbamoyl]-3-methyl-butyl]-4-methoxy-1H-indole-2-carboxamide]	> 30000
CC(C)(C)C[C@H](NC(=O)c1cc2c(F)cccc2[nH]1)C(=O)N[C@H](C#N)C[C@@H]1CCCNC1=O [Compound 816]	> 30000
COc1cc(Cl)cc2[nH]c(C(=O)N[C@@H](CC3CC3)C(=O)N[C@H](C#N)C[C@@H]3CCCNC3=O)cc12 [Compound 906, 6-chloro-N-[(1S)-2-[[(1S)-1-cyano-2-[(3S)-2-oxo-3-piperidyl]ethyl]amino]-1-(cyclopropylmethyl)-2-oxo-ethyl]-4-methoxy-1H-indole-2-carboxamide]	< 2000
N#C[C@H](C[C@@H]1CCCNC1=O)NC(=O)[C@H](CC1CC1)NC(=O)c1cc2c(Cl)cncc2[nH]1 [Compound 669, 4-chloro-N-((S)-1-(((S)-1-cyano-2-((S)-2-oxopiperidin-3-yl)ethyl)amino)-3-cyclopropyl-1-oxopropan-2-yl)-1H-pyrrolo[2,3-c]pyridine-2-carboxamide]	< 2000
COc1nccc2[nH]c(C(=O)N[C@@H](CC3CC3)C(=O)N[C@H](C#N)C[C@@H]3CCCNC3=O)cc12 [Compound 623, N-[(1S)-2-[[(1S)-1-cyano-2-[(3S)-2-oxo-3-piperidyl]ethyl]amino]-1-(cyclopropylmethyl)-2-oxo-ethyl]-4-methoxy-1H-pyrrolo[3,2-c]pyridine-2-carboxamide]	> 30000
COc1cccc2[nH]c(C(=O)N3C[C@H]4CCC[C@H]4[C@H]3C(=O)N[C@H](C#N)C[C@@H]3CCNC3=O)cc12 [Compound 305]	< 2000
CC(C)(C)OC(=O)Nc1cccn([C@@H](CC2CC2)C(=O)N[C@H](C#N)C[C@@H]2CCNC2=O)c1=O (single isomer, unassigned) [505 (Isomer 2)]	> 30000
N#C[C@H](C[C@@H]1CCNC1=O)NC(=O)[C@H](CC1CC1)NC(=O)c1cc2c(OCCN3CCOCC3)cccc2[nH]1 [Compound 515, N-[(1S)-2-[[(1S)-1-cyano-2-[(3S)-2-oxopyrrolidin-3-yl]ethyl]amino]-1-(cyclopropylmethyl)-2-oxo-ethyl]-4-(2-morpholinoethoxy)-1H-indole-2-carboxamide]	< 2000
COc1cccc2[nH]c(C(=O)N[C@@H](CC(C)C)C(=O)N[C@@H](CC3CCNC3=O)C(C#N)NCc3ccccc3)cc12 (single isomer, unassigned) [507 (Isomer 2.1)]	< 2000
COc1cccc2[nH]c(C(=O)N[C@@H](CC3CC3)C(=O)N[C@@]3(C#N)C[C@H]4CC[C@@H]3[C@H]3C(=O)NC(=O)[C@@H]43)cc12 (single isomer, unassigned) [489 (Isomer 1)]	> 30000
CC(C)(C)OC(=O)Nc1cccn([C@H](CC2CC2)C(=O)N[C@H](C#N)C[C@@H]2CCNC2=O)c1=O (single isomer, unassigned) [505 (Isomer 1)]	> 30000
N#C[C@H](C[C@@H]1CCCNC1=O)NC(=O)[C@H](CC1CC1)NC(=O)c1cc2cnccc2[nH]1 [Compound 625, N-((S)-1-(((S)-1-cyano-2-((S)-2-oxopiperidin-3-yl)ethyl)amino)-3-cyclopropyl-1-oxopropan-2-yl)-1H-pyrrolo[3,2-c]pyridine-2-carboxamide]	< 2000
COc1ccc2[nH]c(C(=O)N3CC4(CCCCC4)CC3C(=O)N[C@H](C#N)C[C@@H]3CCNC3=O)cc2c1Cl (single isomer, unassigned) [880 (Isomer 1)]	10000 to 30000
COc1cccc2[nH]c(C(=O)N[C@H](CN[C@H](C#N)C[C@@H]3CCNC3=O)CC(C)(C)C)cc12 [Compound 659, N-[(1S)-1-[[[(1S)-1-cyano-2-[(3S)-2-oxopyrrolidin-3-yl]ethyl]amino]methyl]-3,3-dimethyl-butyl]-4-methoxy-1H-indole-2-carboxamide]	> 30000
